Results on ten compounds are retold here after ChEMBL document CHEMBL4732145, “Discovery of a PROTAC targeting ALK with in vivo activity” (Eur J Med Chem, 2021).

Data set [1] has as its target von Hippel-Lindau disease tumor suppressor/ALK tyrosine kinase receptor/Nucleophosmin (Homo sapiens) (UniProt Q9UM73+P06748+P40337). Nature of the data set: Protac activity at VHL/NPM-ALK fusion protein in human SU-DHL-1 cells assessed as induction of NPM-ALK fusion protein degradation at 1 uM by Western blot analysis relative to control. The format is cell-based.
Data set [2] relates to A549. Nature of the data set: Antiproliferative activity against human A549 cells assessed as reduction in cell viability measured after 72 hrs by MTT assay. The note with it: A549, 72 h.
In data set [3] the test system is HeLa. As to the kind of experiment: Antiproliferative activity against human HeLa cells assessed as reduction in cell viability measured after 72 hrs by MTT assay.
The test system of data set [4] is NCI-H2228. As to the kind of experiment: Antiproliferative activity against human NCI-H2228 cells assessed as reduction in cell viability measured after 72 hrs by MTT assay. The note with it: NCI-H2228, 72 h.
The subject of data set [5] is NCI-H3122. Nature of the data set: Antiproliferative activity against human NCI-H3122 cells assessed as reduction in cell viability measured after 72 hrs by MTT assay. As to conditions: NCI-H3122, 72 h.
Data set [6] has as its system LO2 (Homo sapiens). Nature of the data set: Cytotoxicity against human L02 cells assessed as reduction in cell viability measured after 72 hrs by MTT assay. The note with it: l02, 72 h.
Data set [7] has as its system NCI-H1299. As to the kind of experiment: Antiproliferative activity against human NCI-H1299 cells assessed as reduction in cell viability measured after 72 hrs by MTT assay. As to conditions: NCI-H1299, 72 h.
Data set [8] relates to NCI-H3122. As to the kind of experiment: Antitumor activity against human NCI-H3122 cells xenografted in BALB/c nude mouse assessed as tumor growth inhibition at 25 mg/kg/day, ig administered for 15 days relative to control. Type of data set: functional. The note with it: NCI-H3122, po, 360 h, time 15 day, read-out: TGI.

Where only a bound is given, the exact number is not on record here.

von Hippel-Lindau disease tumor suppressor/ALK tyrosine kinase receptor/Nucleophosmin (Homo sapiens), sequence (P06748 whole entry partner, the tested form may be a part): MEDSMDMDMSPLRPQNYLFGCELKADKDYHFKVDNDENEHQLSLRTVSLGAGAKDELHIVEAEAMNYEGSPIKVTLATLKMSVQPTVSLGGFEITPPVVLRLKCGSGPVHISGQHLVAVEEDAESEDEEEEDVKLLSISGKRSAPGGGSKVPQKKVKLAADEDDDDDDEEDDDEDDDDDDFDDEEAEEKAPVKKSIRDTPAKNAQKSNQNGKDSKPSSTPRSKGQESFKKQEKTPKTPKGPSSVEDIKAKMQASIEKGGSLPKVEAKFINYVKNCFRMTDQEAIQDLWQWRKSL
von Hippel-Lindau disease tumor suppressor/ALK tyrosine kinase receptor/Nucleophosmin (Homo sapiens), sequence (P40337 whole entry partner, the tested form may be a part): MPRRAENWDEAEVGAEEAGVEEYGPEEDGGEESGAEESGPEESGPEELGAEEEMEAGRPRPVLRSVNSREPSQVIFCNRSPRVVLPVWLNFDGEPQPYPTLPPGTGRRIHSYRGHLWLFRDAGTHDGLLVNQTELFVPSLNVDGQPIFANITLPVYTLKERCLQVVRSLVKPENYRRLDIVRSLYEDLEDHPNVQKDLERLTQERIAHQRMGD
von Hippel-Lindau disease tumor suppressor/ALK tyrosine kinase receptor/Nucleophosmin (Homo sapiens), sequence (Q9UM73 19-1620 limits assumed): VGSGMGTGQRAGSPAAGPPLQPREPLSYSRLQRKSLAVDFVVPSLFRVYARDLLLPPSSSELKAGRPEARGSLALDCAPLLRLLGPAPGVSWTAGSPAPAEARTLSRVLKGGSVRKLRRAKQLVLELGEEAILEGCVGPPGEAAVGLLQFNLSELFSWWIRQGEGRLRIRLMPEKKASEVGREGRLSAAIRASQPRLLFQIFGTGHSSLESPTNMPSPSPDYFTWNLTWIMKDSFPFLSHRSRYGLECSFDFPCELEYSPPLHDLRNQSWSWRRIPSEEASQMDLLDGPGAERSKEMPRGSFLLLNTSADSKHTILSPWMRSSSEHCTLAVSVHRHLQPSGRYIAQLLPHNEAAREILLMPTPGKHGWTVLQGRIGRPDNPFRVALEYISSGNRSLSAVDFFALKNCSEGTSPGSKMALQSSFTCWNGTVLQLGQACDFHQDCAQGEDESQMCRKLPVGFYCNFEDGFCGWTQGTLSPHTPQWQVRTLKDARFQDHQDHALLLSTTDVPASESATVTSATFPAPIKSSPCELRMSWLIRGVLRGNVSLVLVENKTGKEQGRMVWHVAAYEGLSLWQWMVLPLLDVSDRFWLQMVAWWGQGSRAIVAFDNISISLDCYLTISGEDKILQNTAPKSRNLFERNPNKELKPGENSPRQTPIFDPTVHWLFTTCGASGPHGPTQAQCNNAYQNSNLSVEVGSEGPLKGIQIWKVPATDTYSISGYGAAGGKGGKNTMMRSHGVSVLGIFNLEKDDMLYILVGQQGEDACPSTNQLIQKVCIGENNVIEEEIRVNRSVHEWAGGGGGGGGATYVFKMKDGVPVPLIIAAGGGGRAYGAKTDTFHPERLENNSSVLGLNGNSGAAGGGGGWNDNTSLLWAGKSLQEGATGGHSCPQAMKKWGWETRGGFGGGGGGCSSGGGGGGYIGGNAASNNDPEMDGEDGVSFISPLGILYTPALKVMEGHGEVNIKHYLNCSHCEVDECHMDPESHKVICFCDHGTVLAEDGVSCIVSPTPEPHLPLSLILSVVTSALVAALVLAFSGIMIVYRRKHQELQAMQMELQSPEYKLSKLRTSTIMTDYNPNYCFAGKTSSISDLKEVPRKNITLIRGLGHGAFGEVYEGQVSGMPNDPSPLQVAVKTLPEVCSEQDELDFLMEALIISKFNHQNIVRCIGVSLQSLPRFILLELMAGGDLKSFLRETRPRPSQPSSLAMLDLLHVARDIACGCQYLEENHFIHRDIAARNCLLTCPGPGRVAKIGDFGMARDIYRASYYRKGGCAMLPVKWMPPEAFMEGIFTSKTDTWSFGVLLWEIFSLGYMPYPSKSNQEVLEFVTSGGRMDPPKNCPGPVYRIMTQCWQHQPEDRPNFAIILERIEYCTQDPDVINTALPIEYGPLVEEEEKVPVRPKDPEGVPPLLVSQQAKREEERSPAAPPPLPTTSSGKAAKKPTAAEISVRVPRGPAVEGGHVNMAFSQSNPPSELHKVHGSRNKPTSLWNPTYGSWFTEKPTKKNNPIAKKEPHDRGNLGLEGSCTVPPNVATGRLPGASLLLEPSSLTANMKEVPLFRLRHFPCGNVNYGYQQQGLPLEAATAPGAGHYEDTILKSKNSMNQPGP

In the case of `Cc1cc(Nc2ncc(Cl)c(Nc3ccccc3S(=O)(=O)C(C)C)n2)c(OC(C)C)cc1C1CCN(C(=O)CCCC(=O)N[C@H](C(=O)N2C[C@H](O)C[C@H]2C(=O)NCc2ccc(-c3scnc3C)cc2)C(C)(C)C)CC1`, the Activity in data set [1] is greater than 90%.
`Cc1cc(Nc2ncc(Cl)c(Nc3ccccc3S(=O)(=O)C(C)C)n2)c(OC(C)C)cc1C1CCN(CCC(=O)NCCCCNCC(=O)Nc2cccc3c2C(=O)N(C2CCC(=O)NC2=O)C3=O)CC1` (centres undefined): the concentration for half-maximal inhibition (IC50) in data set [2] was 13.4 µM; in data set [3], 8.15 µM; in data set [4], 8.7 µM; in data set [5], 3.52 µM; in data set [7], greater than 20 µM. Moreover, the Activity entry in data set [6] was “Toxic”.
`Cc1cc(Nc2ncc(Cl)c(Nc3ccccc3S(=O)(=O)C(C)C)n2)c(OC(C)C)cc1C1CCN(CCC(=O)NCCCCCCNCC(=O)Nc2cccc3c2C(=O)N(C2CCC(=O)NC2=O)C3=O)CC1` (centres undefined): the IC50 in data set [2] is 5.13 µM; in data set [3] it was 4.36 µM; in data set [4], 3.1 µM; in data set [5], 1.1 µM; in data set [7], greater than 20 µM. Also, in data set [6], the Activity entry is listed as “Toxic”.
As for `Cc1cc(Nc2ncc(Cl)c(Nc3ccccc3S(=O)(=O)C(C)C)n2)c(OC(C)C)cc1C1CCN(CCC(=O)NCCCCNC(=O)COc2cccc3c2C(=O)N(C2CCC(=O)NC2=O)C3=O)CC1` (centres undefined), the IC50 in data set [2] was greater than 20 µM; in data set [3], 6.99 µM; in data set [4], greater than 20 µM; in data set [5], 1.3 µM; in data set [7], 9.33 µM. Moreover, in data set [6], the Activity result is recorded as “Toxic”.
`Cc1cc(Nc2ncc(Cl)c(Nc3ccccc3S(=O)(=O)C(C)C)n2)c(OC(C)C)cc1C1CCNCC1` [CERITINIB]: the half-inhibitory concentration (IC50) in data set [2] worked out at 1.32 µM; in data set [3] it was 0.94 µM; in data set [4], 1.3 µM; in data set [7] it was 2.92 µM. The inhibition in vivo at 25 mg/kg/day in data set [8] turned out to be 49%.
Take `Cc1cc(Nc2ncc(Cl)c(Nc3ccccc3S(=O)(=O)C(C)C)n2)c(OC(C)C)cc1C1CCN(CCC(=O)NCCOCCNCCC(=O)Nc2cccc3c2C(=O)N(C2CCC(=O)NC2=O)C3=O)CC1` (centres undefined): the IC50 came to 10.9 µM in data set [2]; 7.98 µM in data set [3]; 5.2 µM in data set [4]; 4.86 µM in data set [5]; 12.3 µM in data set [7]. The Activity entry in data set [6] is “Toxic”.
`Cc1cc(Nc2ncc(Cl)c(Nc3ccccc3S(=O)(=O)C(C)C)n2)c(OC(C)C)cc1C1CCN(CCC(=O)NCCOCCOCCNc2cccc3c2C(=O)N(C2CCC(=O)NC2=O)C3=O)CC1` (centres undefined): the IC50 was 2.6 µM in data set [2]; 2.23 µM in data set [3]; 3.5 µM in data set [4]; 0.7 µM in data set [5]; 7.59 µM in data set [7]. For the same compound, the Activity result in data set [6] was “Toxic”.
For the compound `Cc1cc(Nc2ncc(Cl)c(Nc3ccccc3S(=O)(=O)C(C)C)n2)c(OC(C)C)cc1C1CCN(CCC(=O)NCCOCCNCC(=O)Nc2cccc3c2C(=O)N(C2CCC(=O)NC2=O)C3=O)CC1` (centres undefined), the IC50 was determined as 6.73 µM in data set [2]; 5.78 µM in data set [3]; 5.74 µM in data set [4]; 1.83 µM in data set [5]; 7.23 µM in data set [7]. The Activity result in data set [6] is on record as “Toxic”.
As to `Cc1cc(Nc2ncc(Cl)c(Nc3ccccc3S(=O)(=O)C(C)C)n2)c(OC(C)C)cc1C1CCN(CCC(=O)NCCCCCCCCNCC(=O)Nc2cccc3c2C(=O)N(C2CCC(=O)NC2=O)C3=O)CC1` (centres undefined), the 50% inhibitory concentration (IC50) in data set [2] is greater than 20 µM; in data set [3], 7.67 µM; in data set [4], 15.1 µM; in data set [5], 2.66 µM; in data set [7], greater than 20 µM. Besides, in data set [6], the Activity result is “Toxic”.
With `Cc1cc(Nc2ncc(Cl)c(Nc3ccccc3S(=O)(=O)C(C)C)n2)c(OC(C)C)cc1C1CCN(CCC(=O)NCCOCCOCCNCC(=O)Nc2cccc3c2C(=O)N(C2CCC(=O)NC2=O)C3=O)CC1` (centres undefined), the half-inhibitory concentration (IC50) in data set [2] is 5.81 µM; in data set [3] it was 5.86 µM; in data set [4], 4.51 µM; in data set [5], 2.34 µM; in data set [7], 10.9 µM. For the same compound, in data set [6], the Activity entry is “Toxic”.
